Converted amounts (≈) assume the structure as drawn. Like-named read-outs stand apart in the source and are kept apart here.
Legend:
diastolic blood pressure = test: Prostaglandin-like hypotensive activity in anesthetized rats (minimal dose for about 10 mm. decrease in diastolic blood pressure); type: in vivo, Male Wistar strain rats; conditions: Rattus norvegicus; intravenous; decrease of about 10 mm. in diastolic blood pressure
Procedure, shortened: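 Male Wistar rats (~250 g), pentobarbital 30 mg./kg. i.v. and hexamethonium 2 mg./kg. i.v., iliac artery cannulated for blood pressure. Compounds in saline-Tween 80 given i.v. at 0.1–10.0 mg./kg.; value is the minimal dose giving ~10 mm. drop in diastolic pressure.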

gastric acid secretion [1] = test: Inhibition of basal Gastric Acid Secretion (Acute Gastric Fistula Rat); type: in vivo, Female Sprague-Dawley rats; conditions: 10 mg./kg. intraduodenal
Procedure: Inhibition of basal gastric acid secretion was determined in the acute gastric fistula rat as follows. Female Sprague-Dawley rats (Charles River Laboratories) weighing 140-160 grams are fasted in individual cages for 18-24 hours. The rats are then lightly anesthetized with ether and their front teeth extracted to avoid destruction of the plastic cannula. A midline incision is then made and the stomach and duodenum exposed. A flanged polyvinyl tube is inserted into the fundic portion of the stomach and secured with a purse string suture line using 4-0 Mersilene. The rat is then dosed by injection of the compound into the duodenum (1.0 ml. per 100 gram body weight). After dosing, the abdominal wall and skin are closed using metal wound clips. The rat is replaced in a cage containing a longitudinal slit to allow the polyvinyl tube to hang freely. An 8 ml. plastic collecting tube is attached to the flanged cannula and hangs freely below the cage. The first 30 minute sample is discarded designating this time as zero. The collecting tube is attached again and samples removed at the end of 60 and 120 minutes. Those samples are referred to as "A" and "B" in the table. The hourly samples are then transferred to a 15 ml. centrifuge tube and centrifuged for 5-10 minutes. Total and sediment volume are then recorded with the supernatant volume being used as volume of secretion. A 1 ml. or less aliquot is then removed and placed in a 50 ml. beaker containing 10 ml. of distilled water. This sample is then titrated using 0.01N NaOH to pH 7.0 using a Beckman zeromatic pH meter. Volume, titratable acidity (meq/L) and total acid output (μ eq/hour) are recorded. Percent inhibition is determined by comparison with the appropriate control. Groups of three rats were used. All compounds are administered in vehicle (0.5% methocel, 0.4% Tween 80, saline) at a constant volume of 1 ml./100 gram rat. Samples were sonicated with care to prevent overheating.

[2] = test system: dl-PGE1-induced contraction of gerbil colon; test: Inhibition of dl-PGE1-Induced Contraction of Gerbil Colon (prostaglandin antagonist action); type: cell-based, gerbils (Meriones unguiculatus); conditions: Meriones unguiculatus, 1 min; sub-maximal challenge, 20 ng./ml. dl-PGE1; 50% inhibition of maximum response; read-out: ID50 vs. 20 ng. of PGE1/ml.
Procedure, shortened: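 Ascending colon from male gerbils, held in De Jalon's solution at 37 °C under 95% O2/5% CO2 with 0.5 g resting tension, contraction recorded isometrically. 1 min compound exposure, then 1 min dl-PGE1 at 200 ng/ml (maximal) or 20 ng/ml (sub-maximal). Approximate ID50 taken from a concentration series against the preceding agonist-only cycle.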

[3] = test system: Mycobacterium smegmatis ATCC 606; test: agar-dilution streak-plate antimicrobial assay; type: cell-based; conditions: Mycolicibacterium smegmatis, ATCC606, read-out: Minimal inhibitory conc. (6)
Procedure, shortened: (§1)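 Agar plates containing two-fold dilutions of a 2.5 mg/ml compound solution (1 ml per 9 ml agar) were streak-inoculated with a loopful of live culture. Plates were incubated and streaks inspected by eye. The MIC is the concentration completely inhibiting growth.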

[4] = test system: Streptococcus pyogenes C 203; test: agar-dilution streak-plate antimicrobial assay; type: cell-based; conditions: C203, read-out: Minimal inhibitory conc. (8)
Procedure, shortened: as §1

[5] = test system: Trichophyton tonsurans NIH 662; test: agar-dilution streak-plate antimicrobial assay; type: cell-based; conditions: NIH662, read-out: Minimal inhibitory conc. (3)
Procedure, shortened: as §1

[6] = test system: bronchospasms elicited by 5-hydroxytryptamine; test: Bronchodilator Activity (Konzett Assay) against 5-hydroxytryptamine; type: in vivo, guinea pigs; conditions: Cavia porcellus; three logarithmic cumulative intravenous doses
Procedure: (§2) Bronchodilator activity was determined in guinea pigs against bronchospasms elicited by intravenous injections of 5-hydroxytryptamine, histamine or acetylcholine by the Konzett procedure. [See J. Lulling, P. Lievens, F. El Sayed and J. Prignot, Arzeneimittel-Forschung, 18, 995 (1968)]. In Table IIIC which follows bronchodilator activity for representative compounds of this invention against one or more of the three spasmogenic agents is expressed as an ED50 determined from the results obtained with three logarithmic cumulative intravenous doses.

[7] = test system: bronchospasms elicited by histamine; test: Bronchodilator Activity (Konzett Assay) against histamine; type: in vivo, guinea pigs; conditions: Cavia porcellus; three logarithmic cumulative intravenous doses
Procedure: as §2

[8] = test system: bronchospasms elicited by acetylcholine; test: Bronchodilator Activity (Konzett Assay) against acetylcholine; type: in vivo, guinea pigs; conditions: Cavia porcellus; three logarithmic cumulative intravenous doses
Procedure: as §2

gastric acid secretion [9] = test: Inhibition of Gastric Acid Secretion (Pylorous-Ligated Rat), Shay rat procedure; type: in vivo, rats (male, CFE strain); conditions: read-out: % Inhibition of Control Gastric Acid Secretion; for inhibition in vivo at 50 mg/kg: 50 mg./kg. intraduodenal
Procedure, shortened: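 Male CFE rats were fasted 48 h, then pylorus-ligated under ether. Gastric contents were titrated with 0.02N or 0.04N NaOH to pH 8.4 for acid output, and ≥20% inhibition counted as active.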

[10] = test system: Trichophyton mentagrophytes E 11; test: agar-dilution streak-plate antimicrobial assay; type: cell-based; conditions: E11, read-out: Minimal inhibitory conc. (4)
Procedure, shortened: as §1

[11] = test system: Microsporum gypseum ATCC 14683; test: agar-dilution streak-plate antimicrobial assay; type: cell-based; conditions: Nannizzia gypsea, ATCC14683, read-out: Minimal inhibitory conc. (2)
Procedure, shortened: as §1

[12] = 2 h, B: 120 minute collection, read-out: % Inhibition Total Acid Output
[13] = 2 h, B: 120 minute collection, read-out: % Inhibition Total Acidity
[14] = 1 h, A: 60 minute collection, read-out: % Inhibition Total Acid Output
[15] = 1 h, A: 60 minute collection, read-out: % Inhibition Total Acidity

Compound	minimal effective dose (diastolic blood pressure) [mg/kg]	inhibition in vivo at 10 mg/kg (gastric acid secretion [1]; [12]) [%]	inhibition in vivo at 10 mg/kg (gastric acid secretion [1]; [13]) [%]	IC50 [2] [µg/mL]	MIC [3] [µg/mL]	MIC [5] [µg/mL]	MIC [10] [µg/mL]	further results
O=C(O)CCCC/C=C/[C@@H]1CCC(=O)[C@H]1CCCCCCC(=O)O (relative stereo) [20-carboxy-9-oxo-18,19-dinor-13-trans-prostenoic acid]	8	25	30	35 (≈ 103 µM)	–	–	–	–
CCCCCC/C=C/[C@H]1CCC(=NOC)[C@@H]1CCCCCCC(=O)OCC (relative stereo) [ethyl 9-oxo-13-trans-prostenoate 9-methoxime]	–	66	45	–	–	–	–	–
CCCCCCCCCC/C=C/[C@H]1CCC(=O)[C@@H]1CCCCCCC(=O)O (relative stereo) [20-butyl-9-oxo-13-trans-prostenoic acid]	–	–	–	–	10 (≈ 26.4 µM)	250 (≈ 660 µM)	–	MIC [4]: 10 µg/mL (≈ 26.4 µM); ED50 [6]: > 10 mg/kg; ED50 [7]: 2.4 mg/kg; ED50 [8]: > 10 mg/kg
CCCCCC/C=C/[C@@H]1CCC(=O)[C@H]1CCCCCCC(=O)OCCCC (relative stereo) [n-butyl 9-oxo-13-trans-prostenoate]	2	–	–	–	250 (≈ 660 µM)	–	–	MIC [4]: 250 µg/mL (≈ 660 µM); inhibition in vivo at 50 mg/kg (gastric acid secretion [9]): 20%
CCOC(=O)CCCCCC[C@H]1C(=O)CC[C@@H]1/C=C/CCCCl (relative stereo) [ethyl 20-chloro-9-oxo-17,18,19-trinor-13-trans-prostenoate]	0.2 to 1	–	–	–	250 (≈ 729 µM)	–	250 (≈ 729 µM)	inhibition in vivo at 100 mg/kg (gastric acid secretion [9]; 100 mg./kg. intraduodenal): 61%
CCCCCC/C=C/[C@H]1CCC(=O)[C@@H]1CCCCCC(CC)C(=O)OCC (stereo partly drawn) [ethyl 9-oxo-2-ethyl-13-trans-prostenoate, ethyl 2-ethyl-9-oxo-13-trans-prostenoate]	–	48	49	10 to 25 (≈ 26.4 to 66 µM)	–	–	–	inhibition in vivo at 100 mg/kg (gastric acid secretion [9]; 100 mg./kg. intraduodenal): 42%; inhibition in vivo at 10 mg/kg (gastric acid secretion [1]; [14]): 56%; inhibition in vivo at 10 mg/kg (gastric acid secretion [1]; [15]): 66%
CCOCCC/C=C/[C@@H]1CCC(=O)[C@H]1CCCCCCC(=O)O (relative stereo) [18-oxa-9-oxo-13-trans-prostenoic acid]	2	56	43	15 to 25 (≈ 46.2 to 77.1 µM)	–	250 (≈ 771 µM)	250 (≈ 771 µM)	ED50 [6]: 1.92 mg/kg; ED50 [7]: 1.5 mg/kg; ED50 [8]: > 10 mg/kg
CCSCCC/C=C/[C@@H]1CCC(=O)[C@H]1CCCCCCC(=O)O (relative stereo) [9-oxo-18-thia-13-trans-prostenoic acid]	0.2	–	–	1 (≈ 2.94 µM)	250 (≈ 734 µM)	125 (≈ 367 µM)	125 (≈ 367 µM)	MIC [11]: 250 µg/mL (≈ 734 µM); ED50 [6]: 1.99 mg/kg; ED50 [7]: 1.38 mg/kg; ED50 [8]: > 10 mg/kg
CCC/C=C/[C@H]1CCC(=O)[C@@H]1CCCCCCC(=O)OCC (relative stereo) [ethyl 9-oxo-18,19,20-trinor-13-trans-prostenoate]	–	–	–	–	250 (≈ 810 µM)	–	250 (≈ 810 µM)	inhibition in vivo at 100 mg/kg (gastric acid secretion [9]; 100 mg./kg. intraduodenal): 94%; inhibition in vivo at 100 mg/kg (gastric acid secretion [9]; 100 mg./kg., 1 hr. pre-ligation): 73%; inhibition in vivo at 8 mg/kg (gastric acid secretion [9]; sc, 8 mg./kg. subcutaneous): 40%
O=C(O)CCCCCC[C@H]1C(=O)CC[C@@H]1/C=C/CCCCCCS (relative stereo) [20-mercapto-9-oxo-13-trans-prostenoic acid]	–	–	–	–	125 (≈ 353 µM)	250 (≈ 705 µM)	250 (≈ 705 µM)	MIC [11]: 125 µg/mL (≈ 353 µM); MIC [4]: 6 µg/mL (≈ 16.9 µM)
CCCCCC/C=C/[C@@H]1CCC(=O)[C@H]1CCCCOCC(=O)OCC (relative stereo) [ethyl 9-oxo-3-oxa-13-trans-prostenoate, ethyl 3-oxa-9-oxo-13-trans-prostenoate]	–	–	–	–	–	–	–	inhibition in vivo at 50 mg/kg (gastric acid secretion [9]): 48%; inhibition in vivo at 100 mg/kg (gastric acid secretion [9]; 100 mg./kg. intraduodenal): 89%; inhibition in vivo at 109 mg/kg (gastric acid secretion [9]; 109 mg./kg., 1 hr. pre-ligation): 59%; inhibition in vivo at 10 mg/kg (gastric acid secretion [1]; [14]): 40%; inhibition in vivo at 10 mg/kg (gastric acid secretion [1]; [15]): 37%
CCCCCC/C=C/[C@H]1CCC(=O)[C@@H]1CC(=O)OCC (relative stereo) [ethyl 9-oxo-3,4,5,6,7-pentanor-13-trans-prostenoate]	8	–	–	–	125 (≈ 446 µM)	250 (≈ 892 µM)	125 (≈ 446 µM)	MIC [4]: 125 µg/mL (≈ 446 µM)
CCOC(=O)CCCCCC[C@H]1C(=O)CC[C@@H]1/C=C/CCCI (relative stereo) [ethyl 20-iodo-9-oxo-17,18,19-trinor-13-trans-prostenoate]	–	–	–	–	62 (≈ 143 µM)	250 (≈ 576 µM)	250 (≈ 576 µM)	–
CCCCCC/C=C/[C@H]1CCC(O)[C@@H]1CCCCC(=O)OCC (stereo partly drawn) [ethyl 9-hydroxy-6,7-dinor-13-trans-prostenoate]	–	–	–	–	6 (≈ 18.5 µM)	–	–	MIC [4]: 13 µg/mL (≈ 40.1 µM)
CCCCCC/C=C/[C@@H]1CCC(=O)[C@H]1CCCCC(C)(C)CC(=O)OCC (relative stereo) [ethyl 9-oxo-3,3-dimethyl-13-trans-prostenoate]	–	59	18	–	–	–	–	–
CCCCCCC=CC1CCC(C)(O)C1CCCCCCC(=O)O (stereo not drawn) [9-Hydroxy-9-methyl-13-trans-prostenoic acid]	–	31	16	2 to 5 (≈ 5.91 to 14.8 µM)	–	–	–	ED50 [6]: 0.756 mg/kg; ED50 [7]: 1.18 mg/kg; ED50 [8]: 4.32 mg/kg
CCCCCCC=CC1CCC(=O)C1CCCCCC(C(=O)O)c1ccccc1 (stereo not drawn) [9-oxo-2-phenyl-13-trans-prostenoic acid]	–	44	26	5 to 7 (≈ 12.5 to 17.6 µM)	–	–	–	–

Source: patent publication US4044043A, “Derivatives of 9-oxo-13-trans-prostenoic acid esters” (American Cyanamid Company, priority 1975, dated 1977)
